Assay: Nitric oxide-releasing ability (Griess reagent, with L-cysteine in phosphate buffer)
Conditions: for Nitric oxide-releasing rate: 0.1 mM furoxan compound, 5 mM L-cysteine, 50 mM phosphate buffer pH 7.4, 37° C., 1 hour, one molecule of furoxan taken to release one molecule of nitric oxide; for nitric oxide-releasing ability (in words): conclusion from Table 1; for 3 - X/4 - X (NO-releasing rate of 3-halofuroxan/NO-releasing rate of 4-halofuroxan): ratio of the rates of the 3-halo and 4-halo isomers, same conditions as the releasing rate
Procedure: The ability to release nitric oxide on each of (4-fluoro-3-(4-methylphenyl)furoxan, 3-fluoro-4-(4-methylphenyl)furoxan, 4-chloro-3-(4-methylphenyl)furoxan, and 3-chloro-4-(4-methylphenyl)furoxan was evaluated by the following method.
Each furoxan compound and L-cysteine were dissolved in 50 mM phosphate buffer (pH 7.4) to have a concentration of 0.1 mM and 5 mM, respectively, thereby to prepare a solution with a total volume of 6 mL. After stirring the solution at 37° C. for 1 hour, 3 mL of the solution was added to a light absorption cell and 250 μL of Griess reagent was added. After being left to stand at room temperature for 10 minutes, the absorbance was measured. The nitric oxide-releasing rate was obtained from a calibration curve prepared in advance using a sodium nitrite solution.

| SMILES | Nitric oxide-releasing rate [%] | nitric oxide-releasing rate compared to that of the 3-chlorofuroxan compound (3-fluoro versus 3-chloro compound, same conditions) | nitric oxide-releasing ability (in words) | 3 - X/4 - X (NO-releasing rate of 3-halofuroxan/NO-releasing rate of 4-halofuroxan) [times] |
| --- | --- | --- | --- | --- |
| Cc1ccc(-c2no[n+]([O-])c2Cl)cc1 [3-Chloro compound, 3-chloro-4-(4-methylphenyl)furoxan, reference compound] | 16.7 |  |  |  |
| Cc1ccc(-c2no[n+]([O-])c2F)cc1 [3-Fluoro compound, 3-fluoro-4-(4-methylphenyl)furoxan] | 36.8 | twice or more | extremely high nitric oxide-releasing ability |  |
| Cc1ccc(-c2c(Cl)no[n+]2[O-])cc1 [4-Chloro compound, 4-chloro-3-(4-methylphenyl)furoxan, reference compound] | 4.2 |  |  | 4.0 |
| Cc1ccc(-c2c(F)no[n+]2[O-])cc1 [4-Fluoro compound, 4-fluoro-3-(4-methylphenyl)furoxan] | 2.5 |  | almost no nitric oxide-releasing ability | 14.7 |

Source: patent US10053435B2, “Furoxan compound, and manufacturing method for same” (NATIONAL UNIVERSITY CORPORATION KOBE UNIVERSITY, priority 2015, dated 2018)
